Measurements published in the supplement of paper PMC10307832.

How the values were obtained:
Experiment in all cases: relative viability (nuclei count vs DMSO), 5 days (fraction); higher = more cells survive
[1] = compound: C#Cc1cccc(Nc2ncnc3cc(OCCOC)c(OCCOC)cc23)c1 [Erlotinib] + Nc1ncn([C@H]2C[C@H](O)[C@@H](CO)O2)c(=O)n1 [Decitabine] (partner 2 µM)
Procedure, shortened: (§1)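 For relative viability, nuclei counts in treated wells were divided by those in vehicle wells. Lung cancer cell lines had been pin-tool dosed in 1536-well plates the day after seeding and cultured for 5 days, then fixed and stained in one step (final 0.05% Triton X-100, 1% formaldehyde, 1 ug/ml Hoechst) and imaged at 4×. Doses were one drug alone or a fixed anchor-drug dose plus five library-drug doses (not always all listed) in √10 steps, and values are duplicate-plate medians.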

[2] = compound: C#Cc1cccc(Nc2ncnc3cc(OCCOC)c(OCCOC)cc23)c1 [Erlotinib] + CC(=O)Nc1cccc(-n2c(=O)n(C3CC3)c(=O)c3c(Nc4ccc(I)cc4F)n(C)c(=O)c(C)c32)c1 [Trametinib] (partner 0.02 µM)
Procedure, shortened: as §1

[3] = compound: C#Cc1cccc(Nc2ncnc3cc(OCCOC)c(OCCOC)cc23)c1 [Erlotinib] + Cc1nc(Nc2ncc(C(=O)Nc3c(C)cccc3Cl)s2)cc(N2CCN(CCO)CC2)n1 [Dasatinib] (partner 0.075 µM)
Procedure, shortened: as §1

[4] = compound: C#Cc1cccc(Nc2ncnc3cc(OCCOC)c(OCCOC)cc23)c1 [Erlotinib] + COc1cc2c(Oc3ccc(NC(=O)C4(C(=O)Nc5ccc(F)cc5)CC4)cc3F)ccnc2cc1OCCCN1CCOCC1 [Foretinib] (partner 0.25 µM)
Procedure, shortened: as §1

[5] = compound: C#Cc1cccc(Nc2ncnc3cc(OCCOC)c(OCCOC)cc23)c1 [Erlotinib] + C[C@@H](Oc1cc(-c2cnn(C3CCNCC3)c2)cnc1N)c1c(Cl)ccc(F)c1Cl [Crizotinib] (partner 1 µM)
Procedure, shortened: as §1

Cell Line | relative viability ([1]; first compound 0.02 µM) | relative viability ([1]; first compound 0.2 µM) | relative viability ([1]; first compound 0.6325 µM) | relative viability ([1]; first compound 2 µM) | relative viability ([2]; first compound 0.02 µM) | relative viability ([2]; first compound 0.2 µM) | relative viability ([2]; first compound 0.6325 µM) | relative viability ([2]; first compound 2 µM) | relative viability ([3]; first compound 0.02 µM) | relative viability ([3]; first compound 0.2 µM) | relative viability ([3]; first compound 0.6325 µM) | relative viability ([3]; first compound 2 µM) | relative viability ([4]; first compound 0.02 µM) | relative viability ([4]; first compound 0.2 µM) | relative viability ([4]; first compound 0.6325 µM) | relative viability ([4]; first compound 2 µM) | relative viability ([5]; first compound 0.02 µM) | relative viability ([5]; first compound 0.2 µM) | relative viability ([5]; first compound 0.6325 µM) | relative viability ([5]; first compound 2 µM)
NCI-H1648 | 0.433 | 0.512 | 0.491 | 0.39 | 0.5 | 0.313 | 0.348 | 0.289 | – | – | – | – | – | – | – | – | – | – | – | –
NCI-H1563 | – | – | – | – | – | – | – | – | 0.38 | 0.522 | 0.427 | 0.382 | 0.979 | 0.836 | 0.955 | 0.951 | 0.85 | 0.845 | 0.802 | 0.804
201T | 0.851 | 0.793 | 0.824 | 0.8 | 0.709 | 0.675 | 0.694 | 0.636 | 0.646 | 0.548 | 0.543 | 0.541 | – | – | 1.17 | 0.888 | 1 | 0.943 | 0.905 | 0.951
ChaGo-K-1 | 0.528 | 0.51 | 0.496 | 0.518 | 0.886 | 0.874 | 0.909 | 0.832 | 0.626 | 0.512 | 0.636 | 0.5 | 0.913 | 0.836 | 0.923 | 0.879 | 1.24 | 1.16 | 1.2 | 1.1
LOU-NH91 | 0.715 | 0.626 | 0.688 | 0.602 | 0.759 | 0.57 | 0.739 | 0.644 | 0.459 | 0.434 | 0.415 | 0.365 | 0.519 | 0.524 | 0.585 | – | 0.601 | 0.54 | 0.55 | 0.499
NCI-H522 | 0.661 | 0.751 | 0.659 | 0.589 | 0.665 | 0.697 | 0.705 | 0.676 | 0.812 | 0.784 | 1.06 | 0.85 | – | – | – | – | – | – | – | –
NCI-H1395 | 0.816 | 0.726 | 0.807 | 0.678 | 1.1 | 0.993 | 1.02 | 0.989 | 0.405 | 0.442 | 0.411 | 0.408 | 1.04 | 0.906 | 1.13 | 0.975 | – | – | – | –
LXF-289 | 0.448 | 0.398 | 0.363 | 0.383 | 0.639 | 0.672 | 0.647 | 0.684 | 0.295 | 0.274 | 0.239 | 0.183 | 0.924 | 0.937 | – | 0.874 | 0.818 | 0.828 | 0.761 | 0.711
COR-L23 | 0.425 | 0.432 | 0.49 | 0.434 | 0.67 | 0.636 | 0.617 | 0.545 | 0.552 | 0.554 | 0.457 | 0.452 | 1.11 | 0.947 | 1.18 | 0.928 | 0.718 | 0.681 | 0.666 | 0.614
NCI-H23 | 0.312 | 0.293 | 0.324 | 0.337 | 0.36 | 0.349 | 0.385 | 0.306 | 0.876 | – | 0.928 | 0.698 | 0.909 | – | 1.24 | 0.631 | 0.565 | 0.481 | 0.601 | 0.433
